Experimental data published in US20120052064A1, “ANTI-HGF ANTIBODY COMBINATIONAL CANCER THERAPIES” (priority 2009, published 2012).

Columns and labels:
[1] = molecular target: c-Met receptor (Homo sapiens, UniProt P08581); conditions: read-out: Kd, high affinity binding site; cited from earlier work
[2] = molecular target: heparin sulfate proteoglycans (HSPG); conditions: HSPG on the cell surface and extracellular matrix; read-out: Kd, low affinity binding site; cited from earlier work
[3] = system: IM95m human gastric tumor xenograft; assay: Human gastric cancer IM95m tumor xenograft model; assay type: in vivo, mouse; conditions: SCID mice, s.c. IM95m; day 53 to day 81; HuL2G7 10 mg/kg i.v. once-weekly, erlotinib 25 mg/kg p.o. once-daily days 53-80, or both
Procedure: FIG. 1. (A) Combination effects of humanized L2G7 (HuL2G7) and erlotinib in gastric cancer (tumor) IM95m xenograft model. Treatment was started from 53 days after inoculation. Mice treated with relevant vehicles (i.v. and/or p.o.), HuL2G7 (10 mg/kg/week, i.v., on days 53, 60, 67, and 74), erlotinib (25 mg/kg, p.o., qd×28 doses) or the combined regimen for 28 days. Data represents mean±SD (n=6). *p≦0.025 by one-tailed Dunnett's test (v.s. vehicle). (B) Comparison of differential tumor volumes of the mice group treated with HuL2G7, erlotinib, and a combination of the two. Tumor volume of each mouse on days 53 was subtracted from the volume on days 81. Data represents mean±SD (n=6). # p≦0.05 by Wilcoxon signed-rank test (v.s. combo).

[4] = system: KP-4 human pancreatic tumor xenograft; conditions: 40 mg/kg
Procedure: Sunitinib was administered orally and once-daily at a dose of 40 mg/kg on days 11-25 as its 0.5% methyl cellulose suspension. Administration volume was 10 mL/kg.

Sequence of c-Met receptor (P08581 25-1390): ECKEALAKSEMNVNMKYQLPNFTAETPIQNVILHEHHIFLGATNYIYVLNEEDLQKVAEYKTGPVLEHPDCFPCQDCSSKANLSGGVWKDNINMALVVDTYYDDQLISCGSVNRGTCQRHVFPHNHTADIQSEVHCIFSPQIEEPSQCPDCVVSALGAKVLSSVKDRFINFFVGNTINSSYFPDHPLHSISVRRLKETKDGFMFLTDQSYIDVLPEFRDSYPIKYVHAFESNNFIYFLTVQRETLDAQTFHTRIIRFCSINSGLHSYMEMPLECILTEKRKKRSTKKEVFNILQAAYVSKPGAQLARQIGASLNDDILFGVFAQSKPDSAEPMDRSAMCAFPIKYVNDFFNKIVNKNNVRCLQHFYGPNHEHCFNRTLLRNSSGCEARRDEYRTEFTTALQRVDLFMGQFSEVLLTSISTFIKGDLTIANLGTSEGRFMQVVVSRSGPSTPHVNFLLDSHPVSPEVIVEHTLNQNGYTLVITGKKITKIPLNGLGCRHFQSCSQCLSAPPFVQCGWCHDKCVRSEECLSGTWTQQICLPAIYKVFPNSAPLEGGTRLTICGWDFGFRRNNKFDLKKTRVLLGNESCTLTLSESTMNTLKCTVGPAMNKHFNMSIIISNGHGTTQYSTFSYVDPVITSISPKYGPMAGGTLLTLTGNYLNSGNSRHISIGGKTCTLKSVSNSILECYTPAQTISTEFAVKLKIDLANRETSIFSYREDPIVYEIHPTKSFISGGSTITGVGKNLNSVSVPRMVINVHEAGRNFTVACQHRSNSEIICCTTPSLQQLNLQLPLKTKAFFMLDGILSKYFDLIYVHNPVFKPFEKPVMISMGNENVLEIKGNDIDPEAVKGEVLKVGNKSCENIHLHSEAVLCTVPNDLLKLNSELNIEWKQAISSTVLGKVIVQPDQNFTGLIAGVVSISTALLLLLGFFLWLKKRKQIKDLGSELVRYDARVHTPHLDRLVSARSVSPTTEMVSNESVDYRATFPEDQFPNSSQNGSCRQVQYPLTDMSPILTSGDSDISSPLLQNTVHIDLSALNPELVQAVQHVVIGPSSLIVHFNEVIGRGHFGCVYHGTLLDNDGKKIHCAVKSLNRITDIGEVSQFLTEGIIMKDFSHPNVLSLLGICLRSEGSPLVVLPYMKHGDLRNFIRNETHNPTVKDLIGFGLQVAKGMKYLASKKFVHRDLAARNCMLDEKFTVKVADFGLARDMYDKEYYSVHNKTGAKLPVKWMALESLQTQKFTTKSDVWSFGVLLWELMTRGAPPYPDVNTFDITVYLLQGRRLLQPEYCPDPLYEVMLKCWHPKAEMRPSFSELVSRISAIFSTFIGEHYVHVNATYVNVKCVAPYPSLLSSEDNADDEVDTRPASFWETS

## HGF: multifunctional heterodimeric polypeptide, 102 kDa, ligand of c-Met
[1]
  Kd: 0.2 nM
[2]
  Kd: 1 nM

## C#Cc1cccc(Nc2ncnc3cc(OCCOC)c(OCCOC)cc23)c1 [erlotinib]
[3]
  T/C (%) = ΔT/ΔC×100, change in tumor volume: 45%

## CCN(CC)CCNC(=O)c1c(C)[nH]c(/C=C2\C(=O)Nc3ccc(F)cc32)c1C [sunitinib]
[4]
  T/C (%) = ΔT/ΔC×100, change in tumor volume: 48%
